Test results taken from patent EP4610269A1, “UROKINASE PLASMINOGEN ACTIVATOR SURFACE RECEPTOR (UPAR) LIGANDS FOR DIAGNOSTIC OR THERAPEUTIC USE” (3B Pharmaceuticals GmbH, priority 2024, dated 2025).
Where a SMILES comes first, the peptide text is derived from it. Bridges are numbered along the chain shown (N, C = ends). [ ]: non-standard residue; d: D form. The star is where a group is joined. DOTA = O=C(O)CN1CCN(CC(=O)O)CCN(CC(=O)*)CCN(CC(=O)O)CC1; Pro(cis-4-F) = O=C(O)[C@@H]1C[C@H](F)CN1; Pro(4R-NH2) = N[C@H]1CN[C@H](C(=O)O)C1; Hyp = O=C(O)[C@@H]1C[C@@H](O)CN1; hArg = N=C(N)NCCCC[C@H](N)C(=O)O; 3Pal = N[C@@H](Cc1cccnc1)C(=O)O; Pentanoyl(4-Me) = CC(C)CCC(=O)*; Cit = NC(=O)NCCC[C@H](N)C(=O)O; Propanoyl(3-OEt) = CCOCCC(=O)*; Butoxycarbonyl = CCCCOC(=O)*; NMeK = CN[C@@H](CCCCN)C(=O)O; Nva = CCC[C@H](N)C(=O)O; Pentanoyl = CCCCC(=O)*; Sar = CNCC(=O)O

Experiments:
[1] = target: T1, human uPAR (uPAR-Fc) (Homo sapiens, UniProt Q03405); assay: Surface plasmon resonance (SPR) assay, single cycle kinetics; type: binding; conditions: pKD category for uPAR SPR activity assay; uPAR-Fc on Protein A-Chip, 25°C; read-out: pKD CAT (converted)
T1 construct: comprising amino acids Leu23-Arg303 according to UniProt entry Q03405.1; purchased R&D Systems 10378-UK-100
In short: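 uPAR-Fc (Leu23-Arg303 extracellular domains, human IgG1 Fc) captured on Protein A chip to ~2000 RU; single-cycle kinetics at 25°C in HEPES running buffer pH 7.4 with 0.1% DMSO. KD from double-referenced sensorgrams fitted to 1:1 Langmuir model, reported as pKD.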

[2] = target: T2, uPAR-expressing HEC-265 human endometrial adenocarcinoma cells (Homo sapiens, UniProt Q03405); assay: Competitive FACS binding assay; conditions: pIC50 category of FACS binding
T2 construct: Cell surface uPAR-expressing HEC-265 human endometrial adenocarcinoma cells; host or cells: HEC-265
In short: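 HEC-265 cells incubated 1 h at 4 °C with 10 nM biotinylated uPAR peptide tracer plus increasing test compound, then stained with APC-streptavidin on ice. Median APC fluorescence by flow cytometry; 4PL fit gives pIC50.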

T1 sequence (Q03405 23-303): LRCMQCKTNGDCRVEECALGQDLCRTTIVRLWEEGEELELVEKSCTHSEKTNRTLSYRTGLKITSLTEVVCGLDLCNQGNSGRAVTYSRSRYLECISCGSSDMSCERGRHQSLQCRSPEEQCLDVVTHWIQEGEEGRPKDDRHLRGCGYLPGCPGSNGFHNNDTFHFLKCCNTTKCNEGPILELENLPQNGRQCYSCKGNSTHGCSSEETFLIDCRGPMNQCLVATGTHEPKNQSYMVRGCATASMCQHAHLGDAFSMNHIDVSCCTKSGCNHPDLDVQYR
T2 sequence (Q03405 23-335): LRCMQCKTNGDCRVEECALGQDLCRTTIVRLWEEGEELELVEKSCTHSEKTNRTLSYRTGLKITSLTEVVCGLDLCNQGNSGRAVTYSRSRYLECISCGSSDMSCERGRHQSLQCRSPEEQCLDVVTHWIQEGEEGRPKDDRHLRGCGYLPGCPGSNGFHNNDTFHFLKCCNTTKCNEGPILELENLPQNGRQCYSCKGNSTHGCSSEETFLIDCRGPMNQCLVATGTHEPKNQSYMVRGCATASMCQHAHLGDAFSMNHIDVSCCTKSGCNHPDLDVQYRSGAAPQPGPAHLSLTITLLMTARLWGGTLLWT

Compound	Kd [1] [nM]	IC50 [2] [nM]
CC[C@H](C)[C@@H]1NC(=O)[C@@H](C)NC(=O)[C@@H]2CCCN2C(=O)[C@H](Cc2ccccc2)NC(=O)[C@H](C)NC(=O)[C@H](CCC(N)=O)NC(=O)[C@H](CCCNC(N)=O)NC(=O)[C@@H](NC(=O)CCC(C)C)CSSC[C@@H](C(N)=O)NC(=O)[C@H](CC(C)C)NC1=O [UPAR-159, iHex-[Cys-Cit-Gln-Ala-Phe-Pro-ala-Ile-Leu-Cys]-NH2] ({Pentanoyl(4-Me)}-C[Cit]QAFP[dA]ILC-NH2; disulfide 1-10)	> 100	≥ 126
CCCCC(=O)N[C@H]1CSSC[C@@H](C(N)=O)NC(=O)[C@H](CCC)NC(=O)[C@H]([C@@H](C)CC)NC(=O)[C@@H](CC(=O)O)NC(=O)[C@@H]2CCCN2C(=O)[C@H](Cc2ccccc2)NC(=O)[C@H](Cc2ccc(O)cc2)NC(=O)[C@H](CCC(N)=O)NC(=O)[C@H](CCCNC(=N)N)NC1=O [UPAR-161, Pent-[Cys-Arg-Gln-Tyr-Phe-Pro-asp-Ile-Nva-Cys]-NH2] (Pentanoyl-CRQYFP[dD]I[Nva]C-NH2; disulfide 1-10)	10 to 100	≤ 10
CC[C@H](C)[C@@H]1NC(=O)[C@@H](C)NC(=O)[C@@H]2CCCN2C(=O)[C@H](Cc2ccccc2)NC(=O)[C@H](Cc2ccc(O)cc2)NC(=O)[C@H](CCCCNC(=O)CN2CCN(CC(=O)O)CCN(CC(=O)O)CCN(CC(=O)O)CC2)NC(=O)[C@H](CCCNC(=N)N)NC(=O)[C@@H](NC(=O)[C@H](CC(C)C)NC(C)=O)CSSC[C@@H](C(N)=O)NC(=O)[C@H](CC(C)C)NC1=O [UPAR-162, Ac-Leu-[Cys-Arg-Lys(DOTA)-Tyr-Phe-Pro-ala-Ile-Leu-Cys]-NH2] (Ac-LCRK(DOTA)YFP[dA]ILC-NH2; disulfide 2-11)	< 1.58	≤ 10
CCCCOC(=O)N[C@H]1CSSC[C@@H](C(N)=O)NC(=O)[C@H](CCC)NC(=O)[C@H]([C@@H](C)CC)NC(=O)[C@@H]2C[C@@H](O)CN2C(=O)[C@@H]2C[C@H](F)CN2C(=O)[C@H](Cc2ccccc2)NC(=O)[C@H](Cc2cccnc2)NC(=O)[C@H](CCCCNC(=O)CN2CCN(CC(=O)O)CCN(CC(=O)O)CCN(CC(=O)O)CC2)NC(=O)[C@H]([C@@H](C)O)NC1=O [UPAR-165, Butoc-[Cys-Thr-Lys(DOTA)-Mpa-Phe-4Cfp-Hyp-Ile-Nva-Cys]-NH2] (Butoxycarbonyl-CTK(DOTA)[3Pal]F[Pro(cis-4-F)][Hyp]I[Nva]C-NH2; disulfide 1-10)	< 1.58	≤ 10
CC[C@H](C)[C@@H]1NC(=O)[C@@H]2C[C@@H](O)CN2C(=O)[C@@H]2CCCN2C(=O)[C@H](Cc2ccccc2)NC(=O)[C@H](Cc2ccc(O)cc2)NC(=O)[C@H](CCC(N)=O)NC(=O)[C@H](CCCCNC(=N)N)NC(=O)[C@@H](NC(=O)CCC(C)C)CSSC[C@@H](C(N)=O)NC(=O)[C@H](CC(C)C)NC1=O [UPAR-167, iHex-[Cys-Har-Gln-Tyr-Phe-Pro-Hyp-Ile-Leu-Cys]-NH2] ({Pentanoyl(4-Me)}-C[hArg]QYFP[Hyp]ILC-NH2; disulfide 1-10)	< 1.58	≤ 10
CCCCC(=O)N[C@H]1CSSC[C@@H](C(N)=O)NC(=O)[C@H](Cc2ccccc2)NC(=O)[C@H]([C@@H](C)CC)NC(=O)[C@@H]2C[C@@H](O)CN2C(=O)[C@@H]2CCCN2C(=O)[C@H](Cc2ccccc2)NC(=O)[C@H](Cc2ccc(O)cc2)NC(=O)[C@H](CCC(N)=O)NC(=O)[C@H](CCCNC(=N)N)NC1=O [UPAR-171, Pent-[Cys-Arg-Gln-Tyr-Phe-Pro-Hyp-Ile-Phe-Cys]-NH2] (Pentanoyl-CRQYFP[Hyp]IFC-NH2; disulfide 1-10)	1.58 to 10	12.6 to 31.6
CCCCC(=O)N[C@H]1CSSC[C@@H](C(N)=O)NC(=O)[C@H](CCC)NC(=O)[C@H]([C@@H](C)CC)NC(=O)[C@H](CCCCN)N(C)C(=O)[C@@H]2CCCN2C(=O)[C@H](Cc2ccccc2)NC(=O)[C@H](Cc2ccc(O)cc2)NC(=O)[C@H](CCCCNC(=O)CN2CCN(CC(=O)O)CCN(CC(=O)O)CCN(CC(=O)O)CC2)NC(=O)[C@H](CCCNC(N)=O)NC1=O [UPAR-173, Pent-[Cys-Cit-Lys(DOTA)-Tyr-Phe-Pro-Nmk-Ile-Nva-Cys]-NH2] (Pentanoyl-C[Cit]K(DOTA)YFP[NMeK]I[Nva]C-NH2; disulfide 1-10)	> 100	≥ 126
CCCCC(=O)N[C@H]1CSSC[C@@H](C(N)=O)NC(=O)[C@H](CCC)NC(=O)[C@H]([C@@H](C)CC)NC(=O)CN(C)C(=O)[C@@H]2CCCN2C(=O)[C@H](Cc2ccccc2)NC(=O)[C@H](Cc2ccc(O)cc2)NC(=O)[C@H](CCCCNC(=O)CN2CCN(CC(=O)O)CCN(CC(=O)O)CCN(CC(=O)O)CC2)NC(=O)[C@H](CCCNC(N)=O)NC1=O [UPAR-177, Pent-[Cys-Cit-Lys(DOTA)-Tyr-Phe-Pro-Nmg-Ile-Nva-Cys]-NH2] (Pentanoyl-C[Cit]K(DOTA)YFP[Sar]I[Nva]C-NH2; disulfide 1-10)	1.58 to 10	≤ 10

The remaining lines, values ahead:

Kd [1] [nM]	IC50 [2] [nM]	Compound
< 1.58	≤ 10	CC[C@H](C)[C@@H]1NC(=O)[C@@H](C)NC(=O)[C@@H]2CCCN2C(=O)[C@H](Cc2ccccc2)NC(=O)[C@H](Cc2ccc(O)cc2)NC(=O)[C@H](CCCNC(=N)N)NC(=O)[C@H](CCCNC(N)=O)NC(=O)[C@@H](NC(=O)CCC(C)C)CSSC[C@@H](C(N)=O)NC(=O)[C@H](CC(C)C)NC1=O [UPAR-160, iHex-[Cys-Cit-Arg-Tyr-Phe-Pro-ala-Ile-Leu-Cys]-NH2] ({Pentanoyl(4-Me)}-C[Cit]RYFP[dA]ILC-NH2; disulfide 1-10)
1.58 to 10	12.6 to 31.6	CC[C@H](C)[C@@H]1NC(=O)[C@@H](C)NC(=O)[C@@H]2C[C@@H](N)CN2C(=O)[C@H](Cc2ccccc2)NC(=O)[C@H](Cc2ccc(O)cc2)NC(=O)[C@H](CCC(N)=O)NC(=O)[C@H](CCCNC(N)=O)NC(=O)[C@@H](NC(=O)CCC(C)C)CSSC[C@@H](C(N)=O)NC(=O)[C@H](CC(C)C)NC1=O [UPAR-163, iHex-[Cys-Cit-Gln-Tyr-Phe-Tap-ala-Ile-Leu-Cys]-NH2] ({Pentanoyl(4-Me)}-C[Cit]QYF[Pro(4R-NH2)][dA]ILC-NH2; disulfide 1-10)
> 100	≥ 126	CC(C)CCC(=O)N[C@H]1CSSC[C@@H](C(N)=O)NC(=O)[C@H](CC(C)C)NC(=O)[C@H](C)NC(=O)[C@@H](C)NC(=O)[C@@H]2CCCN2C(=O)[C@H](Cc2ccccc2)NC(=O)[C@H](Cc2ccc(O)cc2)NC(=O)[C@H](CCC(N)=O)NC(=O)[C@H](CCCNC(N)=O)NC1=O [UPAR-164, iHex-[Cys-Cit-Gln-Tyr-Phe-Pro-ala-Ala-Leu-Cys]-NH2] ({Pentanoyl(4-Me)}-C[Cit]QYFP[dA]ALC-NH2; disulfide 1-10)
< 1.58	≤ 10	CC[C@H](C)[C@@H]1NC(=O)[C@@H](C)NC(=O)[C@@H]2CCCN2C(=O)[C@H](Cc2ccccc2)NC(=O)[C@H](Cc2ccc(O)cc2)NC(=O)[C@H](CCC(N)=O)NC(=O)[C@H](C)NC(=O)[C@@H](NC(=O)CCC(C)C)CSSC[C@@H](C(N)=O)NC(=O)[C@H](CC(C)C)NC1=O [UPAR-168, iHex-[Cys-Ala-Gln-Tyr-Phe-Pro-ala-Ile-Leu-Cys]-NH2] ({Pentanoyl(4-Me)}-CAQYFP[dA]ILC-NH2; disulfide 1-10)
1.58 to 10	≤ 10	CCOCCC(=O)N[C@H]1CSSC[C@@H](C(N)=O)NC(=O)[C@H](CC(C)C)NC(=O)[C@H]([C@@H](C)CC)NC(=O)[C@@H](C)NC(=O)[C@@H]2CCCN2C(=O)[C@H](Cc2ccccc2)NC(=O)[C@H](Cc2ccc(O)cc2)NC(=O)[C@H](CCC(N)=O)NC(=O)[C@H](CCCNC(N)=O)NC1=O [UPAR-172, EtOPr-[Cys-Cit-Gln-Tyr-Phe-Pro-ala-Ile-Leu-Cys]-NH2] ({Propanoyl(3-OEt)}-C[Cit]QYFP[dA]ILC-NH2; disulfide 1-10)
